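Protocol summary: plate cells (96-well), add compound at 5 concentrations, incubate 48 h, interpolate endpoints linearly. The concentration for 50% growth inhibition is given as GI50.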 The source made the active and inactive calls. Cut-off read from the data, not from the text of the source: active = GI50 up to about 1.1 µM and inactive = higher. Starred links: 1 amine or outer side, 2 acyl side, 3 side chain; linkers in the order of their positions; H or OH if unused. Non-standard residues stand in square brackets, D forms with d. Residues, ends and D or L forms follow the SMILES beside them. ξ: configuration not given here. Ile(3ξ) = CCC(C)[C@H](N)C(=O)O; X35 = C=CCC(O[*:1])C(=O)[*:2]; NMeV = CN[C@H](C(=O)O)C(C)C; NMeA = CN[C@@H](C)C(=O)O; βAla = NCCC(=O)O
Legend:
Test in all cases: growth of human tumour cells (NCI), 48 h
UACC-257 = test system: UACC-257
HCT-15 = test system: HCT-15
ACHN = test system: ACHN
MDA-MB-231 = test system: MDA-MB-231
HOP-92 = test system: HOP-92
NCI/ADR-RES = test system: NCI/ADR-RES
MOLT-4 = test system: MOLT-4
Hs-578T = test system: Hs-578T
RPMI-8226 = test system: RPMI-8226
OVCAR-5 = test system: OVCAR-5
LOX IMVI = test system: LOX IMVI
U-251 = test system: U-251
A549 = test system: A549
PC-3 = test system: PC-3
SK-MEL-2 = test system: SK-MEL-2
K562 = test system: K562
HCT-116 = test system: HCT-116
UO-31 = test system: UO-31
CAKI-1 = test system: CAKI-1

Row | Structure (SMILES) | GI50 (UACC-257) | GI50 (HCT-15) [µM] | GI50 (ACHN) | GI50 (MDA-MB-231) | GI50 (HOP-92) | GI50 (NCI/ADR-RES) | GI50 (MOLT-4) | GI50 (Hs-578T) | GI50 (RPMI-8226) | GI50 (OVCAR-5) | GI50 (LOX IMVI) | GI50 (U-251) | GI50 (A549) | GI50 (PC-3) | GI50 (SK-MEL-2) | GI50 (K562) | GI50 (HCT-116) | GI50 (UO-31) | GI50 (CAKI-1)
1 | C=C1CCCCCCCCCCC12SCCC2CCCCSC (stereo not drawn) | 26.1 µM (inactive) | 26 | 20.3 µM (inactive) | 19.9 µM (inactive) | 28.1 µM (inactive) | 20.8 µM (inactive) | 21.3 µM (inactive) | 39.4 µM (inactive) | 24.4 µM (inactive) | 20 µM (inactive) | 19.5 µM (inactive) | 17.9 µM (inactive) | 34.3 µM (inactive) | 22.6 µM (inactive) | 17.5 µM (inactive) | 22.9 µM (inactive) | 17.8 µM (inactive) | 35 µM (inactive) | –
2 | CCN(CC)c1ccc(/N=C2\C=C(Cl)C(=O)c3ncccc32)c(C)c1 | 2.48 µM (inactive) | 3.85 | 2.96 µM (inactive) | – | 2.15 µM (inactive) | – | 2.88 µM (inactive) | – | 3.37 µM (inactive) | – | 5.15 µM (inactive) | 4.88 µM (inactive) | 9.71 µM (inactive) | – | 7.74 µM (inactive) | 2.28 µM (inactive) | 3.24 µM (inactive) | 12.4 µM (inactive) | 3.33 µM (inactive)
3 | CS(=O)(=O)Sc1ccc(Cl)cc1 | 8.53 µM (inactive) | 10.1 | – | – | 7.11 µM (inactive) | – | 3.53 µM (inactive) | – | 10.9 µM (inactive) | 17.6 µM (inactive) | 3.36 µM (inactive) | 2.84 µM (inactive) | 3.75 µM (inactive) | – | 6.84 µM (inactive) | 10.2 µM (inactive) | 5.7 µM (inactive) | 3.29 µM (inactive) | 10.7 µM (inactive)
4 | CC(C)NC1CCCCC2c3ccccc3C12O (stereo not drawn) | > 100 µM (inactive) | > 100 | > 100 µM (inactive) | – | – | – | > 100 µM (inactive) | – | > 100 µM (inactive) | – | > 100 µM (inactive) | > 100 µM (inactive) | > 100 µM (inactive) | – | > 100 µM (inactive) | > 100 µM (inactive) | > 100 µM (inactive) | > 100 µM (inactive) | –
5 | COc1ccc(O)c2c1C(=O)CCCC2=O | > 100 µM (inactive) | > 100 | > 100 µM (inactive) | – | – | – | > 100 µM (inactive) | – | > 100 µM (inactive) | > 100 µM (inactive) | > 100 µM (inactive) | > 100 µM (inactive) | > 100 µM (inactive) | – | > 100 µM (inactive) | > 100 µM (inactive) | > 100 µM (inactive) | > 100 µM (inactive) | > 100 µM (inactive)
6 | C/C(=N\NS(=O)(=O)c1ccc(C)cc1)C(CN1CCCCC1)C(c1ccccc1)c1c(O)c2ccccc2oc1=O (stereo not drawn) | > 100 µM (inactive) | > 100 | > 100 µM (inactive) | – | 95.7 µM (inactive) | – | – | – | > 100 µM (inactive) | > 100 µM (inactive) | > 100 µM (inactive) | > 100 µM (inactive) | > 100 µM (inactive) | – | > 100 µM (inactive) | > 100 µM (inactive) | > 100 µM (inactive) | > 100 µM (inactive) | > 100 µM (inactive)
7 | C=CCC1OC(=O)CCNC(=O)[C@H](C)N(C)C(=O)[C@H](C(C)C)N(C)C(=O)[C@H](C(C)CC)NC(=O)[C@@H]2CCCN2C1=O (stereo partly drawn) (cyclo([Ile(3ξ)][NMeV][NMeA][βAla][X35]P)) | 4.71 µM (inactive) | 23 | 27.9 µM (inactive) | – | 8.93 µM (inactive) | – | 3.57 µM (inactive) | – | 4.91 µM (inactive) | 13.6 µM (inactive) | 9.16 µM (inactive) | > 53 µM (inactive) | 9.08 µM (inactive) | – | 3.13 µM (inactive) | 5 µM (inactive) | 3.94 µM (inactive) | 33 µM (inactive) | 8.93 µM (inactive)
8 | COc1cc(/C=C/C(=O)c2sc(NNC(C)=O)nc2C)ccc1O | > 100 µM (inactive) | > 100 | > 100 µM (inactive) | – | > 100 µM (inactive) | – | > 100 µM (inactive) | – | > 100 µM (inactive) | > 100 µM (inactive) | > 100 µM (inactive) | > 100 µM (inactive) | > 100 µM (inactive) | – | > 100 µM (inactive) | > 100 µM (inactive) | – | > 100 µM (inactive) | > 100 µM (inactive)
9 | Nc1nc(SCC(=O)c2ccccc2)c2[nH]cnc2n1 | > 100 µM (inactive) | > 100 | > 100 µM (inactive) | – | 46.5 µM (inactive) | – | > 100 µM (inactive) | – | > 100 µM (inactive) | > 100 µM (inactive) | > 100 µM (inactive) | > 100 µM (inactive) | > 100 µM (inactive) | – | > 100 µM (inactive) | > 100 µM (inactive) | > 100 µM (inactive) | – | > 100 µM (inactive)
10 | O=c1c(Sc2c(O)c3ccccc3c3ccccc3c2=O)c(O)c2ccccc2c2ccccc12 | 41.9 µM (inactive) | 20.5 | 25.4 µM (inactive) | – | 29.3 µM (inactive) | – | 16.8 µM (inactive) | – | 19.8 µM (inactive) | 53.2 µM (inactive) | 25.1 µM (inactive) | 18.7 µM (inactive) | 44.6 µM (inactive) | – | 18.9 µM (inactive) | 33.7 µM (inactive) | – | 43.6 µM (inactive) | 80.4 µM (inactive)
